These results are taken from patent US20110160121A1, “UNACYLATED GHRELIN AND ANALOGS AS THERAPEUTIC AGENTS FOR VASCULAR REMODELING IN DIABETIC PATIENTS AND TREATMENT OF CARDIOVASCULAR DISEASE” (ALIZE PHARMA SAS, priority 2008, published 2011).

Where no end group is shown, it is not given here.

In experiment [1] the test system is CAC. Nature of the experiment: CAC cell-cycle progression (percentage of cells in S phase, FACS). It counts as cell-based, human. The following applies: cultured CAC; effect still evident after 7 days of culture; FIG. 1A. Here is the method: First, cell-cycle progression in response to UAG and AG was evaluated. […] To investigate whether this effect relies on inhibition of baseline ROS production, DCF-DA assay was performed. […] H2O2 was used as positive control. AGE-mediated damage signals mainly rely on ROS production (Ref. 29). […] Isolation and Culture of CAC from Peripheral Blood Mononuclear Cells—Peripheral-blood mononuclear cells (PB-MNC) isolated by Fycoll Histopaque 1077 (Sigma) were resuspended in 20% FBS 199 Medium and plated on fibronectin-coated dishes (Biocoat, Becton Dickinson Labware) as described by Hill et al. (Ref. 19). Human UAG studies were performed on CAC recovered from normal donors and diabetic patients. The purity of sorted cells was assessed by FACS analysis (Ref. 20). For experiments, the isolated CAC were cultured under 5% CO2 at 37° C. for 4 days on 20 μg/ml fibronectin-coated dishes in EGM-2 medium containing 10% FBS, hydrocortisone, human Fibroblast Growth Factor, Vascular Endothelial Growth Factor, Insulin Growth Factor 1, ascorbic acid, human Epidermal Growth Factor, gentamicin and amphotericin-B (Cambrex, Walkersville, Md., USA) alone or in combination with 1 μM UAG and 1.2 mg/ml AGE. […] Cell surface molecules were evaluated by flow cytometry as previously described (Ref. 24). Frequency of marker-positive cells is expressed as mean±standard deviation (SD).

The test system of experiment [2] is CAC. Kind of experiment: Detection of ROS in CAC (DCF-DA assay, FACS). In kind it is cell-based, human. Here is the method:
First, cell-cycle progression in response to UAG and AG was evaluated. […] To investigate whether this effect relies on inhibition of baseline ROS production, DCF-DA assay was performed. […] H2O2 was used as positive control. AGE-mediated damage signals mainly rely on ROS production (Ref. 29). […] Detection of ROS—DCF-DA (0.5 μM final concentration) was added to CAC in the indicated culture conditions. At the indicated times, the cells were subjected to FACS analysis and processed as previously described (Ref. 22). H2O2 was used as positive control.

Experiment [3] deals with CAC. Kind of experiment: CAC senescence (acidic beta-gal / SA-beta-gal activity) in cultured CAC. In kind it is cell-based, human. The following applies: FIG. 2A. Here is the method:
To this end, the effect of AGE treatment, alone or in combination with UAG, was first evaluated on SA-β-gal activity. […] In addition, AGE-induced p53 accumulation and senescent like-growth arrest were prevented by silencing p53 (FIG. 2C).
CAC Senescence—Senescence was evaluated by acidic β-gal activity on CAC recovered from normal subjects cultured in EGM2 medium for 4 days with UAG or AGE+UAG and saline- or UAG-treated diabetic patients (Ref. 22). Briefly, CAC were washed in phosphate-buffered saline, fixed for 3 min at room temperature in 2% paraformaldehyde, washed, and incubated for 24 h at 37° C. with fresh SA-β-gal stain solution: 1 mg/ml 5-bromo-4-chloro-3-indolyl β-D-galactopyranoside (X-gal), 5 mM/liter potassium ferrocyanide, 5 mM/liter ferricyanide, 150 mM/liter NaCl, 2 mM/liter MgCl2, 0.01% sodium deoxycholate, and 0.02% Nonidet P-40. SA-β-gal-positive cells were counted manually by 3 independent investigators.

The subject of experiment [4] is CAC. Kind of experiment: CAC mobilization assay in diabetic mice (NOD/SCID, ob/ob). The following applies: FIG. 4B. It counts as in vivo, mouse. Here is the method: To further confirm data obtained by treating patients and healthy controls with UAG, two different mouse models of diabetes were used. NOD/SCID mice and ob/ob mice were treated for different time intervals with saline or UAG. The person skilled in the art will be familiar with the NOD/SCID mice and ob/ob mice models.
After treatment, cells were recovered, assayed by FACS analysis, counted and cultured. […] Black lines refer to preimmune IgG used as negative control and grey lines refer to surface marker expression. Similar results were obtained when CAC from untreated diabetic mice as well as untreated or treated wild-type mice were analyzed (data not shown).
Diabetic and control mice—Mice were divided in four groups. The plasma glucose and insulin determination for each group are reported. Sixteen 6 weeks old ob/ob mice (blood glucose, 600±45 mg/dL, insulin, 5.5±0.9 ng/ml); sixteen C56BL6/J wild type mice (blood glucose, 150±18.2 mg/dL, insulin, 1±0.05 ng/ml); ten 7 weeks old NOD/SCID mice (blood glucose, 164±12.9 mg/dL, insulin 1.2±.0.12 ng/ml); ten 17 weeks old NOD/SCID mice (blood glucose, 536±36.3 mg/dL, insulin 4.85±0.74 ng/ml). Animal procedures conformed to the Guide for Care and Use of […] (National Institutes of Health publication no. […], revised 1985).
Mobilization assay—Mice were treated for 12 hours with UAG or saline. CAC recovered and purified as above described, were put in culture and counted by three independent investigators. The technical ratio of CAC was calculated by comparing the numbers of CAC/μL of blood drawn from left ventricular.

The test system of another experiment is human arteries. The following applies: Ref. 35; cited from earlier work.

For the substance “1-NH2Gly-Ser-Ser-Phe-Leu-Ser-Pro-Glu-His-Gln-Arg-Val-Gln-Gln-Arg-Lys-Glu-Ser-Lys-Lys-Pro-Pro-Ala-Lys-Leu-Gln-Pro-Arg-28 (H-GSSFLSPEHQRVQQRKESKKPPAKLQPR; ends and bridges not checked; listed as Homo sapiens) [UAG]”, the “percentage of cells in S phase” value in the experiment on CAC [1] was “significant increase in the percentage of cells in S phase”. The “level of ROS production in AGE-cultured cells” value with CAC [2] (AGE-cultured CAC, FIG. 1C, 1F) is reported as “the level of ROS production in AGE-cultured cells was reduced”. The “intracellular ROS production in diabetic-recovered cells” value with CAC [2] (CAC isolated from type 2 diabetic patients, treated in vitro, FIG. 1D) is “reduced intracellular ROS production”. Moreover, the “baseline level of ROS production” value in the experiment with CAC [2] (CAC, compared to untreated cells, FIG. 1B, 1E) was “drastically reduces the baseline level of ROS production”. In the experiment on CAC [3] (UAG added to AGE-cultured CAC), the “number of SA-beta-gal positive cells” value is on record as “significant reduction in the number of SA-β-gal positive cells”. Moreover, in the experiment with CAC [3] (cultured CAC, UAG alone), the “number of senescent cells (SA-beta-gal activity)” value is “reduce the number of senescent cells”. Also, the “number of CAC relative to untreated wild type mice” value in the experiment on CAC [4] (UAG-treated ob/ob mice vs untreated wild type mice) was “fully restores the number of CAC to normal physiological levels”. Besides, the “percentage of recovered cells (CAC)” value with CAC [4] (diabetic NOD/SCID mice) is “increase the percentage of recovered cells”. Also, the “number of circulating CAC” value in the experiment on CAC [4] (ob/ob mice) is “increased number of circulating CAC”. Moreover, in the experiment on human arteries, the vasodilator action result is listed as “have vasodilator actions in human arteries”.
